In assay [1] the target is T1, Inhibitor of NF-kappa-B kinase (IKK) (Homo sapiens) (UniProt O14920+O15111+Q9Y6K9). As to the kind of experiment: Inhibition of IKK in human MDA-MB-231 cells assessed as inhibition of TNF-alpha-induced IkappaB phosphorylation at Ser-32 residue at 5 and 10 uM pretreated for 30 mins followed by addition of TNF-alpha for 1 hr by immunoblot analysis. Format: cell-based. (In general: A western blot detects proteins with antibodies after separation by electrophoresis.)

Assay [2] concerns the target T2, Inhibitor of nuclear factor kappa-B kinase subunit alpha (Homo sapiens) (UniProt O15111).
T2 sequence (whole entry): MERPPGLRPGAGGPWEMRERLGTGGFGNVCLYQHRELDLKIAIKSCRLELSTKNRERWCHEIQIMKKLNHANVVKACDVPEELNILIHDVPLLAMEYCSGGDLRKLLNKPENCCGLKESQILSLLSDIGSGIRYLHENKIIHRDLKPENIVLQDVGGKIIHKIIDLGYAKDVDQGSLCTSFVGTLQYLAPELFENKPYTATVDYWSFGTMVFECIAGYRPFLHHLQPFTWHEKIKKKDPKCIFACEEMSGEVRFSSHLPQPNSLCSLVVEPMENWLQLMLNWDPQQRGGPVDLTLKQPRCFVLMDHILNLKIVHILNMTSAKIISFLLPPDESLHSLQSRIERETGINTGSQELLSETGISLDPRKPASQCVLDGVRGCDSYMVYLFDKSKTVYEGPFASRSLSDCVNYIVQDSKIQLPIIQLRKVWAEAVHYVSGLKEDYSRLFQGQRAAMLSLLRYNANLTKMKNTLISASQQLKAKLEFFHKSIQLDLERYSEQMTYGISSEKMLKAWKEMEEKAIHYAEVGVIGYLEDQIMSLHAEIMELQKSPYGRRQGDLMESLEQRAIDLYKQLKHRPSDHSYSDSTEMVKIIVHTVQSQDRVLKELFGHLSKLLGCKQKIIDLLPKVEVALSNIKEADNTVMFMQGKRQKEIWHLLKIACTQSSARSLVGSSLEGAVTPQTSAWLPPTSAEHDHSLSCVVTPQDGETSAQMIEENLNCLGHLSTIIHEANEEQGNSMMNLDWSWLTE
As to the kind of experiment: Inhibition of TNF-alpha-induced IKK-alpha phosphorylation in human MDA-MB-231 cells at Ser176 residue at 5 and 10 uM pretreated for 30 mins followed by addition of TNF-alpha for 1 hr by immunoblot analysis. The class given is cell-based.

The target in assay [3] is T1, Inhibitor of NF-kappa-B kinase (IKK) (Homo sapiens). As to the kind of experiment: Inhibition of IKK in human MDA-MB-231 cells assessed as inhibition of TNF-alpha-induced NF-kappaB transcriptional activity pretreated with compound for 30 mins followed by addition of TNF-alpha for 8 hrs by luciferase reporter gene assay. Format: cell-based. For orientation: A reporter such as luciferase makes a cellular process visible.

The target is the same in assay [4]. The experiment in a line: Inhibition of IKK in human MDA-MB-231 cells assessed as decrease in TNF-alpha-induced GROalpha mRNA level at 10 uM pretreated for 30 mins followed by addition of TNF-alpha measured after 12 hrs by QR-PCR analysis. The class given is cell-based.
Assay [5] has the same target. As to the kind of experiment: Inhibition of IKK in human MDA-MB-231 cells assessed as inhibition of TNF-alpha-induced p65/RelA phosphorylation at Ser-536 residue at 5 and 10 uM pretreated for 30 mins followed by addition of TNF-alpha for 1 hr by immunoblot analysis. The class given is cell-based.
In assay [6] the test system is MDA-MB-231. The experiment in a line: Inhibition of TNF-alpha-induced cell motility in human MDA-MB-231 cells assessed as lamellipodium projection at 10 uM pretreated for 30 mins followed by addition of TNF-alpha measured after 10 mins by rhodamine- phalloidin staining based assay. The class given is functional.
Assay [7] relates to MDA-MB-231. The experiment in a line: Inhibition of TNF-alpha-induced cell migration in human MDA-MB-231 cells at 10 uM pretreated for 30 mins followed by addition of TNF-alpha measured after 6 hrs by scratch wound healing assay. Format: functional, cell-based.
In assay [8] the target is T1, Inhibitor of NF-kappa-B kinase (IKK) (Homo sapiens). As to the kind of experiment: Inhibition of IKK in human MDA-MB-231 cells assessed as inhibition of TNF-alpha-induced GROalpha promoter activation pretreated with compound for 30 mins followed by addition of TNF-alpha for 8 hrs by luciferase reporter gene assay. The class given is cell-based.
For assay [9] the target is unchanged. The experiment in a line: Inhibition of IKK in human MDA-MB-231 cells assessed as decrease in TNF-alpha-induced GROalpha mRNA level pretreated with compound for 30 mins followed by addition of TNF-alpha measured after 12 hrs by QR-PCR analysis. Format: cell-based.
Assay [10] has the same target. As to the kind of experiment: Inhibition of IKK in human MDA-MB-231 cells assessed as inhibition of TNF-alpha-induced p65/RelA phosphorylation at Ser-536 residue in nucleus at 10 uM pretreated for 30 mins followed by addition of TNF-alpha for 1 hr by immunofluorescence analysis. The class given is cell-based.
The target of assay [11] is T3, Inhibitor of nuclear factor kappa-B kinase subunit beta (Homo sapiens) (UniProt O14920).
T3 sequence (whole entry): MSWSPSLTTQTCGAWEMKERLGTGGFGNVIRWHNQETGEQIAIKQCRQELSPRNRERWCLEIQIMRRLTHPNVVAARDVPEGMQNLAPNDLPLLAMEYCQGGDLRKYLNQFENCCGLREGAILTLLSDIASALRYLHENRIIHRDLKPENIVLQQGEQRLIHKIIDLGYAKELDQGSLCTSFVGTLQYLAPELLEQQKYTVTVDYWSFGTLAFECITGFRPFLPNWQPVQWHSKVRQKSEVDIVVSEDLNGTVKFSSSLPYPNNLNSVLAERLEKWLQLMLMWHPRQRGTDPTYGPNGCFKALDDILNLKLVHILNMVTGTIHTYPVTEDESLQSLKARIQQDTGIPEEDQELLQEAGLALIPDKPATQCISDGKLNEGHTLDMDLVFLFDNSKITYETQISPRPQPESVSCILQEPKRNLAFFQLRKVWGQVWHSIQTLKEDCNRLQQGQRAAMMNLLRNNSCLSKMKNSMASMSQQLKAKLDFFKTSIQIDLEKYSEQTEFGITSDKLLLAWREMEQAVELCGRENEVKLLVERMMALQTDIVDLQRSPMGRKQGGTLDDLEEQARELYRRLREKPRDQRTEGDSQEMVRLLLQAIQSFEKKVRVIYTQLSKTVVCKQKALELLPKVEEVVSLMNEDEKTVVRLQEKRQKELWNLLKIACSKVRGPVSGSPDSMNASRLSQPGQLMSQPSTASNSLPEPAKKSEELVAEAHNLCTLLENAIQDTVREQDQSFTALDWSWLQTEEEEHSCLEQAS
The experiment in a line: Inhibition of TNF-alpha-induced IKK-beta phosphorylation at Ser180 residue in human MDA-MB-231 cells at 5 and 10 uM pretreated for 30 mins followed by addition of TNF-alpha for 1 hr by immunoblot analysis. The class given is cell-based.

Assay [12] has as its system MDA-MB-231. As to the kind of experiment: Inhibition of TNF-alpha-induced cell invasion in human MDA-MB-231 cells assessed as decrease in spindle-like protrusions at 10 uM pretreated for 30 mins followed by addition of TNF-alpha by microscopic analysis. Format: functional, cell-based.
The target in assay [13] is T1, Inhibitor of NF-kappa-B kinase (IKK) (Homo sapiens). As to the kind of experiment: Inhibition of IKK in human MDA-MB-231 cells assessed as decrease in TNF-alpha-induced GROalpha mRNA level pretreated with compound for 30 mins followed by addition of TNF-alpha measured after 12 hrs by RT-PCR analysis. Format: cell-based.
Assay [14] relates to MDA-MB-231. The experiment in a line: Inhibition of TNF-alpha-induced cell invasion in human MDA-MB-231 cells at 10 uM pretreated for 30 mins followed by addition of TNF-alpha measured after 24 hrs by matrigel invasion assay. Format: functional, cell-based.

Activity calls are given as the source filed them. The calls are words filed in the database; no cut-off is given here.

Turning to `COc1cc(/C=C/C(=O)c2cc(OC)ccc2O)cc(OC)c1`, the inhibition entry (in [1]; in assay [2]; in assay [5]; in the assay on MDA-MB-231 [6]; in the assay with MDA-MB-231 [7]; in assay [10]) was “Active” each time. For the same compound, the inhibition result (in assay [11]; in the assay with MDA-MB-231 [12]; in the assay with MDA-MB-231 [14]) was “Active” in each case. Also, the inhibition entry in [3], in [8], in assay [9] and in assay [13] was “Dose-dependent effect” in each case. Moreover, the fold change (FC) in [4] was determined as 4.1.
